Measured values reported in patent US20220347144A1, “COMPOSITIONS AND METHODS FOR PREVENTING AND/OR REDUCING WEIGHT GAIN AND ASSOCIATED CONDITIONS” (University of Virginia Patent Foundation, priority 2019, published 2022).
Entries after “also recorded” stand apart in the source; their conditions may differ.

How the values were obtained:
C57Bl/6J mice [1] = test: Liver acylcarnitine levels by LC-MS/MS; assay type: in vivo, mouse
Method: Acylcarnitines were quantified as their butyl esters as described in Giesbertz et al., 2015. Briefly, liver tissue was extracted in ice-cold methanol spiked with stable-isotopically labeled internal standards (Cambridge Isotope Laboratories, Tewksbury, Mass., United States of America). Insoluble material was pelleted and the supernatant subsequently dried down under vacuum. Samples were solubilized in n-butanol containing 5% acetyl chloride and incubated for 60° C. for 20 minutes, Samples were subsequently dried down again and resuspended in 50:50 water:methanol for LC-ESI-MS/MS analysis. LC-MS/MS analysis was performed on a I-class Acquity with a 2.1 mm×10 cm C18 CSH […] particle size column coupled to an in-line TQ-S mass spectrometer using multiple reaction monitoring. Calibration curves were generated from standard mixtures of acylcarnitines from Cambridge Isotope Laboratories.

C57Bl/6J mice [2] = test: Liver ceramide and lipid composition by LC-MS/MS in mice on control or high fat diets with or without nervonic acid; assay type: in vivo, mouse
Method: Animals. Animal experiments were approved by the Animal Care and Use Committee of the University of Virginia (Charlottesville, Va., United States of America). C57Bl/6J mice were obtained from Jackson Laboratories (Bar Harbor, Me., United States of America). Mice were group housed in standard cages with up to five mice per cage with a 12 hour dark/light cycle. All mice were weighed once per week. Weekly food consumption was measured, with the amount consumed per cage averaged amongst the mice in the cage. Body composition was determined by use of an ECHOMRI™-100H Body Composition Analyzer (EchoMRI LLC, Houston, Tex., United States of America).
Diets. Diets were obtained from Research Diets (New Brunswick, N.J., United States of America). The low fat chow was D12450Ji (10 kcal % fat) and the high fat chow was D12492 (60 kcal % fat). These two chows were reformulated by replacing a portion of dietary fat with an ethyl ester of nervonic acid from Nu-Chek Prep (Elysian, Minn., United States of America) to produce isocaloric diets with nervonic acid at 6 g per kg of diet (0.6%). For the three most prevalent fatty acids in these diets: C16 comprised 14.4%, 11.7%, 18.5%, and 18.1%; C18:1 comprised 27.4%, 22.8%, 32%, and 31.4%; and C18:2 comprised 39.6%, 36.2%, 26.9%, and 26.5% of the fatty acid composition of the Cnt, Cnt+NA, HFD, and HFD+NA diets, respectively. Mice were started on diets at ˜8 weeks of age and given ad libitum access.
Sphingolipid and acylcarnitine measurements by liquid chromatography-mass spectrometry. Sphingolipids were analyzed as described previously (Wijesinghe et al., 2010) for FIG. 1B or with modifications described herein. Liver samples from rats fed a low or high fat diet were obtained from Scot Kimball's laboratory at the Pennsylvania State University (Hershey, Pa.). Mouse liver samples were analyzed with modifications as described previously (Pearson et al., 2020). For FIGS. 1A and 5D, liver homogenates were subjected to lipid extraction and subjected to liquid chromatography-electrospray ionization mass spectrometry was performed on an I-class Acquity with a 2.1 mm×10 cm C18 CSH […] particle size column coupled to an in-line TQ-S mass spectrometer from Waters Corporation (Milford, Mass., United States of America).

[3] = NA enrichment in both the control diet and the HFD

(Z)-tetracos-15-enoic acid [NA]
dicarboxyl-acylcarnitines C5 (C5-DC) and C6 (C6-DC) levels in liver (C57Bl/6J mice [1]; HFD enriched with NA): teductions | long-chain acylcarnitines in liver (C57Bl/6J mice [1]; HFD+NA versus HFD): significant decreases; also recorded: largely restored to control levels | hydroxyl-fatty acylcarnitines in liver (C57Bl/6J mice [1]; NA enrichment in both diets, C4-OH, C6-OH, C10-OH, C8-OH): increased | acetyl-carnitine (C2) in liver (C57Bl/6J mice [1]; [3]): increased | free carnitine (C0) in liver (C57Bl/6J mice [1]; [3]): increased | hepatic C20 and C22-ceramides (C57Bl/6J mice [2]; HFD-fed mice, NA-supplemented diet): back to control levels | C24:1-lysophosphatidylcholine in liver (C57Bl/6J mice [2]; NA-enriched control and HFDs): elevated | diacylglyceride C16:0/C24:1 in liver (C57Bl/6J mice [2]; NA-enriched control and HFDs): elevated | diacylglyceride C18:0/C24:1 in liver (C57Bl/6J mice [2]; NA-enriched control and HFDs): elevated | diacylglyceride C18:1/C24:1 in liver (C57Bl/6J mice [2]; NA-enriched control and HFDs): elevated | diacylglyceride C18:2/C24:1 in liver (C57Bl/6J mice [2]; NA-enriched control and HFDs): elevated | total amounts of ceramides in liver (C57Bl/6J mice [2]; between diet groups with and without NA): consistent between diet groups | C24:1-hexosylceramide in liver (C57Bl/6J mice [2]; both diets, NA 0.6%): increasing | C24:1-sphingomyelin in liver (C57Bl/6J mice [2]; both diets, NA 0.6%): increasing | other ceramides C20-C26 in liver (C57Bl/6J mice [2]; normal and HFD fed groups, NA 0.6% by diet weight): concomitant decreases | C24:1-ceramides in liver (C57Bl/6J mice [2]; normal and HFD fed groups, ethyl ester of NA 0.6% by diet weight): increases
